pIC50: −log10 of the molar value.
How the values were obtained:
Type in all cases: biochemical
[1] = target: EZH1 (EZH1/EED/SUZ12/RBAP48/AEBP2) (Homo sapiens, UniProt O75530+Q92800); test: HMT panel selectivity: EZH1
Source text: (§1) Note: for EZH2, EZH2/EED/SUZ12/RBAP48/AEBP2 was used in the assay; for EZH1, EZH1/EED/SUZ12/RBAP48/AEBP2 was used in the assay; for MLL, MLL/WDR5/RBBP5/ASH2L/ was use in the assay. a, H3K27me0 peptide was used as substrate for both EZH2 and EZH1 activity; b, H3K27me1 peptide was used as substrate for both EZH2 and EZH1 activity.

SMYD3 = target: T1, SMYD3 (Homo sapiens, UniProt Q9H7B4); test: HMT panel selectivity: SMYD3
T1 sequence (Q9H7B4 1-428): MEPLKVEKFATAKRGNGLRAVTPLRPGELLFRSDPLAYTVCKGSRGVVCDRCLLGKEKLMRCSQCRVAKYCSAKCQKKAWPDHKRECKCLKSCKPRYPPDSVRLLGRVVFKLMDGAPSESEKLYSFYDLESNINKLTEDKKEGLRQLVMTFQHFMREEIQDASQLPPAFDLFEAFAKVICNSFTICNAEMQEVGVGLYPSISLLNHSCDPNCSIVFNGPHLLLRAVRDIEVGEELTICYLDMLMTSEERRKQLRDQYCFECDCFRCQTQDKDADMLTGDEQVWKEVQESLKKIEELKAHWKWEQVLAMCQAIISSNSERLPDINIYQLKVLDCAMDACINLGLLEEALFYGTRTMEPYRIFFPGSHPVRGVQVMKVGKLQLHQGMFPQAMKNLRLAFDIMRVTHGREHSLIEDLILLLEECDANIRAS
Description: as §1, with “activity. All HMT reactions were performed as described previously. ref: Proc Natl Acad Sci U S A. 2012 Dec 26;109(52):21360-5.” for “activity.”

SetD8 = target: T2, SetD8 (Homo sapiens, UniProt Q9NQR1); test: HMT panel selectivity: SetD8
T2 sequence (Q9NQR1 1-393): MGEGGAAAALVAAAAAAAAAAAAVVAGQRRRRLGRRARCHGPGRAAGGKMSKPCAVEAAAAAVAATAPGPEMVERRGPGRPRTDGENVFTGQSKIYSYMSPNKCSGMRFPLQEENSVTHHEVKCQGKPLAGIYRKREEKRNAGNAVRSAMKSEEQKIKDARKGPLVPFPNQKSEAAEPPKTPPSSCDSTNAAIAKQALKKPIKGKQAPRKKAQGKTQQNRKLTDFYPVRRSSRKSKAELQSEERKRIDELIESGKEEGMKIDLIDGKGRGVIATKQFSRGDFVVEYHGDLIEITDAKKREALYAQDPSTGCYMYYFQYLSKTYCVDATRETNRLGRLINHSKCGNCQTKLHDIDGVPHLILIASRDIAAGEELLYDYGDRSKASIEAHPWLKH
Description: as §1, with “activity. All HMT reactions were performed as described previously. ref: Proc Natl Acad Sci U S A. 2012 Dec 26;109(52):21360-5.” for “activity.”

Suv39H2 = Suv39H2 (Homo sapiens, UniProt Q9H5I1); test: HMT panel selectivity: Suv39H2
Description: as §1, with “activity. All HMT reactions were performed as described previously. ref: Proc Natl Acad Sci U S A. 2012 Dec 26;109(52):21360-5.” for “activity.”

NSD2 = target: T3, NSD2 (Homo sapiens, UniProt O96028); test: HMT panel selectivity: NSD2
T3 sequence (O96028 1-1365): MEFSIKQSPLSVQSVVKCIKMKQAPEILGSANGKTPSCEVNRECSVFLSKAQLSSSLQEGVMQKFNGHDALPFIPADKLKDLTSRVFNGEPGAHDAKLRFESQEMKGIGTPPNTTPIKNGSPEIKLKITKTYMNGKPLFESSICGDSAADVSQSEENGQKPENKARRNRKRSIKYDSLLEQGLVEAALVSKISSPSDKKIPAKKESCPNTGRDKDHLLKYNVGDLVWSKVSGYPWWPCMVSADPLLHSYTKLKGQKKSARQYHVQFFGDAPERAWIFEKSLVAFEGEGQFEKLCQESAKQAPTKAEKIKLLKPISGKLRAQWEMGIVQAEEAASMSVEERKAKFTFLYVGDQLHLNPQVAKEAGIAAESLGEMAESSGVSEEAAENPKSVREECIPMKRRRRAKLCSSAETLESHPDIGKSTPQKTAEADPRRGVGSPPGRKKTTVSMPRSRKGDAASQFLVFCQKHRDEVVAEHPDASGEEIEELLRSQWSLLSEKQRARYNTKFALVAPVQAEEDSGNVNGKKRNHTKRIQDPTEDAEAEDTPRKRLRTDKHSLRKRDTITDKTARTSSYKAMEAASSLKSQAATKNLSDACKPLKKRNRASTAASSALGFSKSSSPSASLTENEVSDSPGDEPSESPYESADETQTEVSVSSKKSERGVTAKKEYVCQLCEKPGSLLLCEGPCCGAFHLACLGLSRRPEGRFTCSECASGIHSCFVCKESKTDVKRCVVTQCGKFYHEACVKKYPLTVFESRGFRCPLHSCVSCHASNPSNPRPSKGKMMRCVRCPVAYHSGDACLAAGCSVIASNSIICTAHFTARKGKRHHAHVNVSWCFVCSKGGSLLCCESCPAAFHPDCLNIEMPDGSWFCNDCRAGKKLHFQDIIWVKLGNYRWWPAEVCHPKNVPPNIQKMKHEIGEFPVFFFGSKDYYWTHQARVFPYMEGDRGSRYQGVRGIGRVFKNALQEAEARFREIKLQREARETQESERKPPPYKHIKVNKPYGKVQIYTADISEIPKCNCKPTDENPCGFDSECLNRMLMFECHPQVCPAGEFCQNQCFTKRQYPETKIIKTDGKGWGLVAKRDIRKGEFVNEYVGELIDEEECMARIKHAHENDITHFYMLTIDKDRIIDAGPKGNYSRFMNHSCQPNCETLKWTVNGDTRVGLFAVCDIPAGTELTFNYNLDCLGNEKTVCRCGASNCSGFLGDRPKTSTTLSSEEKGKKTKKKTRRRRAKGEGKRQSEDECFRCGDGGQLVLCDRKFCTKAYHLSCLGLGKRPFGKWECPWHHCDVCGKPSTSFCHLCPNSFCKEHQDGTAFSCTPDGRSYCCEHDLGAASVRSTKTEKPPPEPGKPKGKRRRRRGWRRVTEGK
Description: as §1, with “activity. All HMT reactions were performed as described previously. ref: Proc Natl Acad Sci U S A. 2012 Dec 26;109(52):21360-5.” for “activity.”

Dot1L = Dot1L (Homo sapiens, UniProt Q8TEK3); test: HMT panel selectivity: Dot1L
Description: as §1, with “activity. All HMT reactions were performed as described previously. ref: Proc Natl Acad Sci U S A. 2012 Dec 26;109(52):21360-5.” for “activity.”

PRMT5/MEP50 = PRMT5/MEP50 (Homo sapiens, UniProt O14744); test: HMT panel selectivity: PRMT5/MEP50
Description: as §1, with “activity. All HMT reactions were performed as described previously. ref: Proc Natl Acad Sci U S A. 2012 Dec 26;109(52):21360-5.” for “activity.”

Sequence of EZH1 (EZH1/EED/SUZ12/RBAP48/AEBP2) (Q92800 whole entry): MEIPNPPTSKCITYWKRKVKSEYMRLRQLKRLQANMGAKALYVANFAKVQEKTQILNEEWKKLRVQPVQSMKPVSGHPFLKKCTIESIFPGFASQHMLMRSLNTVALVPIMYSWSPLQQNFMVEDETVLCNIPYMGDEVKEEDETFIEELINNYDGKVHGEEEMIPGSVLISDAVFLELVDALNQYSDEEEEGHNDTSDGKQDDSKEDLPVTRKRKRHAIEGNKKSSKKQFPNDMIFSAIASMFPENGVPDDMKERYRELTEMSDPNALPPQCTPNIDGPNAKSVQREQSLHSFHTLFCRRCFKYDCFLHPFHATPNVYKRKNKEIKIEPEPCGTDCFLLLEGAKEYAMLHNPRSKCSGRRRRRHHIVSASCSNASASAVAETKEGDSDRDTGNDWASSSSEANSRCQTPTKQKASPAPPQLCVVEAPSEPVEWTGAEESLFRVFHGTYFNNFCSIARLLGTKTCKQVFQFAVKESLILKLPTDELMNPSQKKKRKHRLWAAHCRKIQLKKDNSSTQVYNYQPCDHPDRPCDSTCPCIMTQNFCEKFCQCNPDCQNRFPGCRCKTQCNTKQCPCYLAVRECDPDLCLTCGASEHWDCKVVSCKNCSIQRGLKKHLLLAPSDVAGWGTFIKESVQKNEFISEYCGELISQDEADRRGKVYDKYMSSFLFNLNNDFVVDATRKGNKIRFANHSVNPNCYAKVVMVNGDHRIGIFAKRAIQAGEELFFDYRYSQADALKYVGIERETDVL
Sequence of EZH1 (EZH1/EED/SUZ12/RBAP48/AEBP2) (O75530 whole entry): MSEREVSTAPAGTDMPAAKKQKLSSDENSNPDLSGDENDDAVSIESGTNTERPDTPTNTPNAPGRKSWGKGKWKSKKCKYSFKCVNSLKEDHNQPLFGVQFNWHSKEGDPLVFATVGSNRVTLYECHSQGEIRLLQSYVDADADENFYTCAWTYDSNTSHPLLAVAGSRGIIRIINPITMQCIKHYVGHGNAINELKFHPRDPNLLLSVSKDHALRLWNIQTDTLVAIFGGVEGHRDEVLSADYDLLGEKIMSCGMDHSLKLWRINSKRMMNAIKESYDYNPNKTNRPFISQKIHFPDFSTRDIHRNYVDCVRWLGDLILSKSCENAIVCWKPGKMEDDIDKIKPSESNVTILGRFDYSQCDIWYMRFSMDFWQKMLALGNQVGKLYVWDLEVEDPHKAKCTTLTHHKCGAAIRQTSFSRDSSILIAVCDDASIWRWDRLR
Sequence of EZH1 (EZH1/EED/SUZ12/RBAP48/AEBP2) (Q15022 whole entry partner): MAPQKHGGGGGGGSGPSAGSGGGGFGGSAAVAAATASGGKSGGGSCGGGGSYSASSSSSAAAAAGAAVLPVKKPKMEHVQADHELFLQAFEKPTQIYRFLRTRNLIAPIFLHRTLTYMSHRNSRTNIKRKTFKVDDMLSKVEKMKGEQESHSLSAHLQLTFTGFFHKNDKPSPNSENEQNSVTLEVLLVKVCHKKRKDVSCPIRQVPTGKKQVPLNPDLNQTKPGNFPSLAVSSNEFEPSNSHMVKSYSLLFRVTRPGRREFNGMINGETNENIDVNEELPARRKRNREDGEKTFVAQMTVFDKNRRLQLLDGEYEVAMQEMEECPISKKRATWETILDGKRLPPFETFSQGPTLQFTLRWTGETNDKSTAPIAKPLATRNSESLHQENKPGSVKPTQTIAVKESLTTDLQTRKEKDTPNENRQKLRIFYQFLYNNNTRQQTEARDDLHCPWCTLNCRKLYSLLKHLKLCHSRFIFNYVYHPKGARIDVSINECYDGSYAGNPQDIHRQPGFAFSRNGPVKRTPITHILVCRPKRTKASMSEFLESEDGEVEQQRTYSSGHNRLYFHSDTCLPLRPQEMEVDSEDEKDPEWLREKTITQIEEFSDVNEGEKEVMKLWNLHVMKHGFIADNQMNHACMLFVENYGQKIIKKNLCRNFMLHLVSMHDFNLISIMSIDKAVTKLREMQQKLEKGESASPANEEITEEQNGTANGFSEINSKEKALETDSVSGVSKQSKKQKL
Sequence of EZH1 (EZH1/EED/SUZ12/RBAP48/AEBP2) (Q09028 whole entry partner): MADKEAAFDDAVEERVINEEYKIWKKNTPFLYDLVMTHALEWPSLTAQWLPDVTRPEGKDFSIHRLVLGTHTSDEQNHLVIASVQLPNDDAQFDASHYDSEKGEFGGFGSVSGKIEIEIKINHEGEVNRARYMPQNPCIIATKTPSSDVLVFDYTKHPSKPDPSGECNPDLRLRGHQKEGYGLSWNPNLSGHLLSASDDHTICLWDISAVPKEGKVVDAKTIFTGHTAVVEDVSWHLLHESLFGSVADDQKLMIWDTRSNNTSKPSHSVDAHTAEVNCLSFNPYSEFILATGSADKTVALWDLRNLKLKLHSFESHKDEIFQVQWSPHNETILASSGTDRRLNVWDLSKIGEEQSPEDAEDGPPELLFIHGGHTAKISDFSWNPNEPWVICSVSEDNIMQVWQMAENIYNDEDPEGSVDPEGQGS
Sequence of EZH1 (EZH1/EED/SUZ12/RBAP48/AEBP2) (Q6ZN18 whole entry partner): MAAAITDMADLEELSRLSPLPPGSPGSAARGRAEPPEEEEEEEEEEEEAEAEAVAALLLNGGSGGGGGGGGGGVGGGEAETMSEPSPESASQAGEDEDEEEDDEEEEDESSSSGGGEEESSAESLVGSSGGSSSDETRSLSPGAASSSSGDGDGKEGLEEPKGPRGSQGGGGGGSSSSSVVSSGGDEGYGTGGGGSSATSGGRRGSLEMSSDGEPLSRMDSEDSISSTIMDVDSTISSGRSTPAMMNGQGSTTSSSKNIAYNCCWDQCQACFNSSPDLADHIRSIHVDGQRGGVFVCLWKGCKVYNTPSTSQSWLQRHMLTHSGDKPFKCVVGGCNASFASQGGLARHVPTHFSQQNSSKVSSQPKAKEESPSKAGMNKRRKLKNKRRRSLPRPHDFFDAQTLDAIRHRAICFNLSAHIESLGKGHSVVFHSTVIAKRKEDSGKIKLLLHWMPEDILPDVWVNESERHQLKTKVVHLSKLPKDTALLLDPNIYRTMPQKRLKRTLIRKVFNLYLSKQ
Sequence of Dot1L (Q8TEK3 whole entry, species assumed): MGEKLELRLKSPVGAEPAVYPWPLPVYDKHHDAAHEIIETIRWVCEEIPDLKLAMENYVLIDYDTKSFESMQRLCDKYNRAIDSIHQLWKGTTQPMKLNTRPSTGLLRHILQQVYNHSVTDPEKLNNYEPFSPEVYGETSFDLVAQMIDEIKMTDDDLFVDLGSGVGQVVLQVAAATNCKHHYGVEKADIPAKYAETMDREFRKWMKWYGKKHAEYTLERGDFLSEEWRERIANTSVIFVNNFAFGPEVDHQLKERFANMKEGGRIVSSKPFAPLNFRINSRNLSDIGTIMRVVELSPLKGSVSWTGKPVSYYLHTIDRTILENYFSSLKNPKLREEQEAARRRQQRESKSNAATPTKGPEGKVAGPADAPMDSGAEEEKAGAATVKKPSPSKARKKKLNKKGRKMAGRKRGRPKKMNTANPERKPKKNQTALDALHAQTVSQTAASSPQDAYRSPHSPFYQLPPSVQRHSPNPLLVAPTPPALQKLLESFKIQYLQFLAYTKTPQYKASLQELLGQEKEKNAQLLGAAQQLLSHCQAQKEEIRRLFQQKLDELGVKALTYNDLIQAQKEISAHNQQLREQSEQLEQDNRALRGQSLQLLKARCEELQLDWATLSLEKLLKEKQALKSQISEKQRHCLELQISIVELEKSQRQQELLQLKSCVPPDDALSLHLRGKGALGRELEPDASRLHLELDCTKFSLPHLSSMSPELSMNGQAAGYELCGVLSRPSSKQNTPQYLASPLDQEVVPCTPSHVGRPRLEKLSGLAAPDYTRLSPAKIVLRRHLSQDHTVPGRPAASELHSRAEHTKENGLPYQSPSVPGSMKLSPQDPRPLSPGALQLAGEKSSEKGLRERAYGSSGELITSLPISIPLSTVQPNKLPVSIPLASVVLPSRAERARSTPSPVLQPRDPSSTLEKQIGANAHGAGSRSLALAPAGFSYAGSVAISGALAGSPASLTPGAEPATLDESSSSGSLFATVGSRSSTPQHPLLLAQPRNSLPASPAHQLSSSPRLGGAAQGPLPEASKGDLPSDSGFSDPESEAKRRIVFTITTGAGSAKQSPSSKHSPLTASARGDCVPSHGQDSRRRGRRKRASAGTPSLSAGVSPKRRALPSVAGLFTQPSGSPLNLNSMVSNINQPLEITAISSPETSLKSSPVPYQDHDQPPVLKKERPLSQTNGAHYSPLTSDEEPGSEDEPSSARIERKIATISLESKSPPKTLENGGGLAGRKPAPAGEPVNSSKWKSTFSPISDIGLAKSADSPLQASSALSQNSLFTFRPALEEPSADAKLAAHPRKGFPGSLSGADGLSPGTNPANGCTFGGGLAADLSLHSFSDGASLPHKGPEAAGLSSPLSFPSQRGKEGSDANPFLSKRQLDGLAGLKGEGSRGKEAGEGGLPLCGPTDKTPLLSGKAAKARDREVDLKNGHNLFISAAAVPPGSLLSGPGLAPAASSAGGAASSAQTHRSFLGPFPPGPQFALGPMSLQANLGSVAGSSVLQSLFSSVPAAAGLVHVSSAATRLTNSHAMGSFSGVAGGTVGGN
Sequence of Suv39H2 (Q9H5I1 whole entry, species assumed): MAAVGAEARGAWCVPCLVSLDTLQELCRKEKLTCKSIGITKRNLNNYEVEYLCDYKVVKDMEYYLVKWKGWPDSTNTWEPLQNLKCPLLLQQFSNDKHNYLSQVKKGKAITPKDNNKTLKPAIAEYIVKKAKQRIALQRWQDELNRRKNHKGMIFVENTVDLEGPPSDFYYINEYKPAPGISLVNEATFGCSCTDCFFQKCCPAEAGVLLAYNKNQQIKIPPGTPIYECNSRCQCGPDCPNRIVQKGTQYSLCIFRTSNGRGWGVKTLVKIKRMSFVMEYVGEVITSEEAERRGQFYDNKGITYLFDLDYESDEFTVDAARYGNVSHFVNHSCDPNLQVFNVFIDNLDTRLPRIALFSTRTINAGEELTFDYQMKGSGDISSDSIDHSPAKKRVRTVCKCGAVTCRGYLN

pIC50 [1]	pIC50 (SMYD3)	pIC50 (SetD8)	pIC50 (Suv39H2)	pIC50 (NSD2)	pIC50 (Dot1L)	pIC50 (PRMT5/MEP50)	SMILES
4.18	< 4.00	< 4.00	< 4.00	< 4.00	< 4.00	< 4.00	Cc1cc(C)n(-c2cc(N3CCc4ccccc4C3)ccc2[N+](=O)[O-])n1 [EED666]
4.15	< 4.00	< 4.00	< 4.00	< 4.00	< 4.00	< 4.00	COc1cc(-c2cc3n(c(=N)c2C#N)CCc2cc4c(cc2-3)OCO4)ccc1OC(C)C [EED396]
	< 4.00	< 4.00	< 4.00	< 4.00	< 4.00	< 4.00	COc1ccccc1CN1CC(c2cn(C)c3ccccc23)C(N(C)C)C1 (stereo not drawn) [EED709]

SMILES	pIC50 [1]	pIC50 (SMYD3)	pIC50 (SetD8)	pIC50 (Suv39H2)	pIC50 (NSD2)	pIC50 (Dot1L)	pIC50 (PRMT5/MEP50)
N#Cc1c2c(c3nncn3c1NCc1ccco1)CN(Cc1ccccc1)CC2 [EED162]	5.29	< 4.00	< 4.00	< 4.00	< 4.00	< 4.00	< 4.00
COc1cccc(CC2CC3Cc4c(cccc4OC)CC3N(C)C2)c1 (stereo not drawn) [EED210]		< 4.00	< 4.00	< 4.00	< 4.00	< 4.00	< 4.00
